Tests used:
[1] = system: naïve CD4+ CD25− T cells; test: Conversion of CD4+CD25− T cells into CD4+FoxP3+ Tregs in vitro; assay type: cell-based
Description: To assess the effect of decitabine on the generation of Tregs, naïve CD4+ CD25− T cells were cultured with mitomycin C treated APCs plus IL-2, TGFβ and anti-CD3 in the presence or absence of decitabine and numbers of CD4^+FoxP3^+ Tregs were determined by FACS after 72 h. The RNA was isolated from cell lysate, and reverse transcribed to cDNA for RT-qPCR analysis using Taqman primer probes. Expression of genes encoding Foxp3 was normalized to HPRT expression and was calibrated relative to vehicle group.

[2] = system: collagen-induced arthritis in DBA/1 mice; test: Treatment of collagen-induced arthritis in vivo; settings: 1 mg/kg for 4 days from day of arthritis onset, scored 10 days, vs vehicle (FIG. 3, P<0.05)
Description: DBA/1 mice were immunized with bovine type II collagen emulsified in complete Freund's adjuvant. The mice were treated with decitabine (1 mg/kg) for 4 days, starting on the day of arthritis onset. Treatment was then stopped. Negative controls received vehicle alone. Clinical scores were monitored for 10 days following onset of arthritis. A clinical scoring system was used as follows. Arthritis severity was scored by an experienced non-blinded investigator as follows: 0=normal, 1=slight swelling and/or erythema, 2=pronounced swelling, 3=ankylosis. All four limbs were scored, giving a maximum possible score of 12 per animal.

[3] = system: IDO1 gene expression in THP-1 cells; test: Induction of IDO1 in THP-1 cells (RT-qPCR); assay type: cell-based, human; settings: 96 hours; for concentration at which the highest level of IDO induction was observed: tested 0.1-10 micromolar; for increase of IDO1 gene expression (maximum over tested concentrations): compound alone
Description: THP-1 cells were harvested from appropriate number of T75 flasks. Cells were counted in a Bürker chamber, stained with 0.4% Trypan Blue. The appropriate number of cells for each experiment were transferred to a new tube and centrifuged at 1200 rpm, 5 min at room temperature (RT). The supernatant was discarded and fresh RPMI with 5% FBS were added to get a cell concentration of 2×10^5 cells/mL. The compound was added to the five separate wells in 6-well plates such that five different final concentrations were obtained after adding the cells. A control was added to one well in the 6-well plate to which cells were added. 1×10^6 cells per well were seeded out to achieve a total volume of 5 mL per well. The cells were incubated at 37° C. in 5% CO2 for 96 hours. After 96 hours the assay was stopped and the cells were lysed for the isolation of RNA.
Total RNA was extracted from THP-1 cells using the RNA RNeasy Mini extraction kit (Qiagen), according to the manufacturer's instructions. A SuperScript® VILO™ RT-kit (Thermo Fisher) was used to reverse transcribe 1 μg of total RNA to cDNA and qPCR was performed. The primers used for amplification of the human IDO1 gene were 5′-[…]-3′ (forward; SEQ ID No. 1) and 5′-[…]-3′ (reverse; SEQ ID No. 2). The primers used for amplification of the endogenous reference gene for human HPRT1 were 5′-[…]-3′ (forward; SEQ ID No. 3) and 5′-[…]-3′ (reverse; SEQ ID No. 4). In brief, RT-qPCR was performed in 20 μl reaction, consisting 10 μl PowerUp SYBR Green Master Mix, 0.5 μM of each primer, 4 μl diluted cDNA for amplification of IDO1 and 1.5 μl diluted cDNA for amplification of HPRT1. An iCycler iQ real-time detection system (Stratagene, Mx3000P, La Jolla, Calif., USA) with the following thermal profile: UDG incubation at 50° C. for 2 min, then denaturation at 95° C. for 5 min, followed by 45 cycles at 94° C. for 15 s, 58° C. for 30 s, and 60° C. for 30 s, was used to perform thermocycling and real-time detection of PCR products. After amplification a melting curve analysis was performed. The RT-qPCR experiments were always run in triplicate. IDO1 was normalised to the geometric means of two HPRT1 reference gene, using the ΔCt method. Within-group comparisons were normalized to one control sample, using the ΔΔCt method.

Row | SMILES | relative expression of the Foxp3 gene (RT-qPCR) ([1]; normalized to HPRT, relative to vehicle group, vs control "nil" (FIG. 4C)) | frequencies of CD4+FoxP3+ Tregs (FACS) ([1]; with mitomycin C treated APCs, IL-2, TGFβ, anti-CD3, after 72 h, vs control "nil" (FIG. 4B)) | disease severity (mean clinical score) [2] | dose dependence of IDO1 gene expression ([3]; 0.1-10 micromolar) | concentration at which the highest level of IDO induction was observed [3] [µM] | increase of IDO1 gene expression (maximum over tested concentrations) ([3]; 0.1-10 micromolar) | IDO1 expression (fold change) ([3]; decitabine 0.1 micromolar, vs DMSO control) | IDO1 expression (fold change) ([3]; decitabine 0.3 micromolar, vs DMSO control) | IDO1 expression (fold change) ([3]; decitabine 1 micromolar, vs DMSO control) | IDO1 expression (fold change) ([3]; decitabine 3 micromolar, vs DMSO control) | IDO1 expression (fold change) ([3]; decitabine 10 micromolar, vs DMSO control) | IDO1 expression (fold change) ([3]; azacytidine 0.1 micromolar, vs H2O:HAc control) | IDO1 expression (fold change) ([3]; azacytidine 0.3 micromolar, vs H2O:HAc control) | IDO1 expression (fold change) ([3]; azacytidine 1 micromolar, vs H2O:HAc control) | IDO1 expression (fold change) ([3]; azacytidine 3 micromolar, vs H2O:HAc control) | IDO1 expression (fold change) ([3]; azacytidine 10 micromolar, vs H2O:HAc control)
1 | Nc1ncn([C@H]2C[C@H](O)[C@@H](CO)O2)c(=O)n1 [decitabine, 4-Amino-1-(2-deoxy-β-D-ribofuranosyl)-1,3,5-triazin-2(1H)-one] | increased in a dose-dependent manner | increased in a dose-dependent manner | successful in reducing disease severity | a dose-related response was observed | 10 | up to 101 fold | 6 | 16.4 | 40 | 87 | 101 |  |  |  |  | 
2 | Nc1ncn([C@@H]2O[C@H](CO)[C@@H](O)[C@H]2O)c(=O)n1 [azacytidine, 4-Amino-1-(β-D-ribofuranosyl)-1,3,5-triazin-2(1H)-one] |  |  |  |  | 1 | up to 23 fold |  |  |  |  |  | 0.5 | 1.2 | 23 | 6 | 8.6
